Values of other authors, collected in PMC2483489 (Acta Crystallographica Section D: Biological Crystallography, 2006).

Experiments:
[1] = test system: resistance mutants isolated from relapsed imatinib patients; settings: ref Weisberg et al., 2006, Kantarjian et al.
KDR = settings: statement in words, no reference given
Flt-3 = settings: statement in words, no reference given
Irk = settings: statement in words, no reference given
c-Kit = settings: ref Mol et al., 2004

Row | SMILES | Activity against imatinib-resistance mutants [1] | Binding to KDR (KDR) | Binding to Flt-3 (Flt-3) | Binding to Irk (Irk) | Binding to c-Kit (c-Kit)
1 | Cc1cn(-c2cc(NC(=O)c3ccc(C)c(Nc4nccc(-c5cccnc5)n4)c3)cc(C(F)(F)F)c2)cn1 [NVP-AMN107, nilotinib] | active against all but one of the resistance mutants |  |  |  | 
2 | Cc1ccc(NC(=O)c2ccc(CN3CCN(C)CC3)cc2)cc1Nc1nccc(-c2cccnc2)n1 [Imatinib, imatinib] |  | does not bind | does not bind | does not bind | does bind
